Experimental data taken from patent US9408915B2, “Tolvaptan solid dispersion and its preparation method” (Jiangsu Hengrui Medicine Co., Ltd., priority 2010, dated 2016).

How the values were obtained:
[1] = white crystal or crystalline powder; cited from earlier work
[2] = Dissolution test (paddle blade method, 0.2% w/v sodium dodecylsulfate aqueous solution); type: physicochemical; conditions: powder equal to 100 mg tolvaptan, paddle 100 rpm
Description: Q.S. (the amount is equal to 100 mg of tolvaptan) of the powder prepared in Examples 1-10, Comparative examples and the control (crystal material with a particle diameter distribution of 1400 μm and an average diameter of 83 μm) were added to the dissolution tester. 0.2% w/v sodium dodecylsulfate aqueous solution was used as the solvent. The dissolution test was performed using the paddle blade method with the rotation speed of 100 rpm. A sample was taken at 5 min, 10 min, 15 min, 20 min, 30 min, and 45 min to determine the absorbance and calculate the dissolution rate.
The determination of the dissolution rate (%) is as follows: dissolve a certain amount of tolvaptan in methanol; transfer 5 ml of the solution to a 100-ml volumetric flask and then dilute with 0.2% (w/v) sodium dodecylsulfate aqueous solution to give a 20 μg/ml standard solution; the absorbance of the standard solution and the sample solution was determined at wavelengths of 269 nm and 330 nm. The dissolution rate can be obtained by the ratio of the difference of the absorbance of standard solution and the control and the difference of the absorbance of the sample solution and control.

Row | dissolution rate ([2]; 5 min) [%] | dissolution rate ([2]; 10 min) [%] | dissolution rate ([2]; 15 min) [%] | dissolution rate ([2]; 20 min) [%] | dissolution rate ([2]; 30 min) [%] | dissolution rate ([2]; 45 min) [%] | Compound | solubility in water [1]
1 |  |  |  |  |  |  | Cc1ccccc1C(=O)Nc1ccc(C(=O)N2CCC[C@@H](O)c3cc(Cl)ccc32)c(C)c1 [Tolvaptan, 7-chloro-5-hydroxy-1-[2-methyl-4-(2-methylbenzoylamino)benzoyl]-2,3,4,5,-tetrohydro-1H-benzoazepine] | only slightly soluble in water
2 | 15.9 | 19.1 | 22.2 | 25.8 | 30.7 | 42.8 | Cc1ccccc1C(=O)Nc1ccc(C(=O)N2CCC[C@@H](O)c3cc(Cl)ccc32)c(C)c1 [compound 1] | 
